Laboratory results from US20080221134A1, “8-ALKYNYLXANTHINES AND DERIVATIVES” (priority 2006, published 2008).

What was measured:
[1] = biological target: T1, Adenosine A1 (Homo sapiens, UniProt P30542); assay: Functional assay (luciferase reporter), inhibition of A1 adenosine receptor; assay type: cell-based; parameters: expressed in transfected cells; host or cells: CHO-DUKX-SRE-Luci-A1-44 (CHO-DUKX, vector pCineo); settings: for A1 AR Imax: Imax in % of the corresponding antagonist (CPX)
T1 sequence (P30542 1-326): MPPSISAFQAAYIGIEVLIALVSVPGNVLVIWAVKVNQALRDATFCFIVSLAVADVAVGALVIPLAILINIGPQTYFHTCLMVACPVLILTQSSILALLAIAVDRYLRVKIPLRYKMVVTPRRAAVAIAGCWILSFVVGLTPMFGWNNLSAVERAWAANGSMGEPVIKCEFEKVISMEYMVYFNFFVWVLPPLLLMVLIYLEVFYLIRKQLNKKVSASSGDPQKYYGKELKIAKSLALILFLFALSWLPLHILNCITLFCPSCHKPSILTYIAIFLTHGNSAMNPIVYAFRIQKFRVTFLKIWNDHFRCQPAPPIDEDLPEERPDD

[2] = biological target: Adenosine A2A (Homo sapiens, UniProt P29274); assay: Functional assay (luciferase reporter), inhibition of A2A adenosine receptor; assay type: cell-based; parameters: expressed in transfected cells; host or cells: CHO-DUKX-CRE-A2A-19 (CHO-DUKX, vector pCineo); settings: for IC50: CHO-DUKX-CRE-A2A-19 cells, 60 nM NECA, read-out: A2A AR IC50; for A2A AR Imax: Imax in % of the corresponding antagonist; for Ki: Ki=IC50/(1+agonist concentration/EC50), read-out: A2A AR Ki
[3] = system: rats; assay: Modified Irwin test (FOB, SAC, FU); assay type: in vivo, rat; parameters: key to Hypersensitivity / Temperature / Respiration / Tremor / Stereotypies / Patterns Activity / Motor Coordination / Catalepsy: +++ = very strong effect.; ++ = strong effect.; + = average effect.; 0 = no effect.; − = negative effect; settings: modified Irwin test, 0.01-30 mg/kg, compressed outcome
From the text: In this study the compounds of the present invention were screened for basal behavioural, autonomic, neurological and toxicological side-effects in rats. For this purpose, a functional observational battery (FOB) in form of an Irwin test (Irwin S., Psychopharmacologia, 1968, 13, 222; 1968; Warburton D. M. Psychopharmacology, 2002, 163, 4; Haggerty G. C. et al., J. Amer. Coll. Toxicol., 1991, 10, 677; Mattsson J. L. et al., J. Amer. Coll. Toxicol., 1996, 15, 239, all references are herein incorporated by reference) modified and validated by the Test Facility was used. Each test compound was tested at eight doses (0.01, 0.03, 0.1, 0.3, 1.0, 3.0, 10.0 and 30.0 mg/kg). All compounds were dissolved in DMSO (administration volume 1 ml/kg). Each dose group included three animals. Two vehicle groups (DMSO and Labrasol) served as negative controls.
At the first day of each test week all test compound solutions necessary for the test (1-2 weeks) were prepared by means of one dilution series starting with the highest concentration. All test compounds dissolved in DMSO were administered in a volume of 1 ml/kg. DMSO-containing solutions were stored at −18° C. All solutions were melted for administration at room temperature 16-20 hours before the start of the test.
Study design and time schedule:
4-7 days: Acclimatization and handling of the animals 1 day: Test day with • (a) Four repeated functional observational battery (FOB): 30 min, 60 min, 120 min, 180 min following compound administration • (b) Short animal check (SAC): 300 min following compound administration 1 day: Follow-up observation (FU): • 24 h (1440 min) following compound administration.
In all experimental parts, an experienced ethologist used lists of predefined methods and behavioural parameters in order to rate the behaviour of the animal (see table 7 for functional observational battery (FOB), table 8 for short animal check (SAC) and table 9 for follow-up observation (FU).
A statistical evaluation of the data was performed that enabled an assessment of the compound's effects on each parameter. Dose-response relationships are not necessarily linear. It was not clear a priori whether the response would be dose-dependent or whether low, medium or high dose effects would occur. Therefore, the data were correlated against a set of different numeric models of theoretical dose-response curves. For this kind of evaluation the measurement times were not differentiated. An average value over all measurement times was calculated for each animal. This value was taken as one measurement within the observation vector. The complete set of parameters measured for the animal (each one averaged over time) formed the observation vector. Each dose was then represented by three observation vectors (3 animals per dose). The effects of all doses were compared with vehicle (DMSO) as the observation vectors for the zero dose. A common pool of 24 animals for the zero dose was used for all compounds to be tested. For each test compound the obtained values for each parameter together with values from the pool of vehicle-treated (DMSO) animals were then correlated with theoretical dose-response models (analysis profiles). Since 8 doses were be used, there were 8 models, each assuming that the maximum compound effect occurred at one of these doses. Effects of other doses were assumed to be attenuated with a linearly descending slope of the theoretical curve. Correlation values and statistical significance of regression were then calculated. An error probability of p<0.05 (two-tailed testing) was taken as significance level. Non-significant regressions were neglected. In consequence, each parameter was assessed as not affected or affected by the compound in a dose-response relationship according to type 1 (low dose effect) up to type 8 (high dose effect). Dose response is maximal for the effect with the greatest absolute correlation coefficient. […]

[4] = biological target: T2, A1-adenosine receptor human recombinant (Homo sapiens, UniProt P30542); assay: Radioligand binding assay 1, human recombinant A1 adenosine receptor; settings: [3H]CCPA
T2 construct: expressed in transfected cells
T2 sequence (P30542 1-326): T1 sequence (P30542 1-326)
Procedure: (§1) Rat brain preparations were used for A1- and A2A adenosine receptor (AR) and human recombinant cell samples for A1-, A2A- and A3 adenosine receptor radioligand binding studies. Affinity and selectivity was tested in displacement experiments with following radioligands: [^3H]CCPA for A1-adenosine receptors, [^3H]MSX-2 for A2A-receptors and [^3H]PSB-11 for A3-receptors. Results of these experiments are depicted in table 2b (human data) and table 2a (rat data). Radioligand binding test systems are e.g. generally described by Muller et al., Curr. Pharm. Des., 1996, 2, 501 and Weyler et al., ChemMedChem 2006, 1, 891 and references cited therein) These documents are incorporated herein by reference.

[5] = biological target: T3, A2A-adenosine receptor human recombinant (Homo sapiens, UniProt P29274); assay: Radioligand binding assay 1, human recombinant A2A adenosine receptor; settings: human recombinant, [3H]MSX-2; read-out: A2A-adenosine receptor human recombinant [3H] MSX-2 Ki
T3 construct: expressed in transfected cells
Procedure: as §1

T3 sequence (P29274 whole entry): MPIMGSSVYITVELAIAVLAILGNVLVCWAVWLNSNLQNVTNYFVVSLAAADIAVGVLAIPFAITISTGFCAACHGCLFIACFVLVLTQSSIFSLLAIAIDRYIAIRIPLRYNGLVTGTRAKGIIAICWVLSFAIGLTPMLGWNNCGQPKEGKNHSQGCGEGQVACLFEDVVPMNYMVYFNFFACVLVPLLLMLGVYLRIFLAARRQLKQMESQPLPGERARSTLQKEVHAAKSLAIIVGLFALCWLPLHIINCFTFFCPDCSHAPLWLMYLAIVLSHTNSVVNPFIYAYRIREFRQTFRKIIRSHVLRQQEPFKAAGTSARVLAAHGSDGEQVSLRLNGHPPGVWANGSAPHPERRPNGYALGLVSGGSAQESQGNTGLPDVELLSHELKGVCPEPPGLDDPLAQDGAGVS
Adenosine A2A, sequence (P29274 whole entry): as above

Row | SMILES | Ki [4] [nM] | Ki [5] [nM] | further results
1 | C#CCn1c(=O)c2c(nc(C#Cc3ccc(OC)c(OC)c3)n2C)n(C)c1=O [drawing 619] |  |  | A1 AR IC50 ([1]; CHO-DUKX-SRE-Luci-A1-44 cells, 3.5 μM ADAC): Nosignificantactivitydetected; A1 AR Imax [1]: Nosignificantactivitydetected; A1 AR Ki ([1]; Ki=IC50/(1+agonist concentration/EC50)): Nosignificantactivitydetected; IC50 [2]: 600 nM; A2A AR Imax [2]: 95%; Ki [2]: 58 nM
2 | CCCn1c(=O)c2[nH]c(C3CCCC3)nc2n(CCC)c1=O [CPX, 8-Cyclopentyl 1,3-diprophylxanthine, reference compound] |  |  | A1 AR Imax [1]: 100%
3 | C#CCn1c(=O)c2c(nc(C#Cc3ccc(OC)c(OC)c3)n2C)n(CCCO)c1=O [drawing 622] |  |  | IC50 ([1]; CHO-DUKX-SRE-Luci-A1-44 cells, 3.5 μM ADAC, read-out: A1 AR IC50): 1800 nM; A1 AR Imax [1]: 92%; Ki ([1]; Ki=IC50/(1+agonist concentration/EC50), read-out: A1 AR Ki): 401 nM; IC50 [2]: 300 nM; A2A AR Imax [2]: 117%; Ki [2]: 26 nM
4 | C#CCn1c(=O)c2c(nc(C#Cc3cccc(OC)c3)n2C)n(CCCO)c1=O [drawing 626] |  |  | Catalepsy [3]: 0; Hypersensitivity [3]: +; Motor Coordination [3]: 0; Patterns Activity [3]: +; Respiration [3]: ++; Stereotypies [3]: 0; Temperature [3]: 0; Tremor [3]: 0
5 | C#CCn1c(=O)c2c(nc(C#Cc3ccc(OC)c(OC)c3)n2C)n(CCF)c1=O [drawing 587] | > 1000 | 30.8 ± 4.9 | 
6 | C#CCn1c(=O)c2c(nc(C#Cc3ccc(F)c(OC)c3)n2C)n(CC)c1=O [drawing 588] | > 1000 | 100 ± 28 | 
7 | C#CCn1c(=O)c2c(nc(C#Cc3ccc(OC)c(OC)c3)n2C)n(CCCC#N)c1=O [drawing 582] | > 1000 | 58 ± 13.3 | 
8 | C#CCn1c(=O)c2c(nc(C#Cc3ccc(OC)c(OC)c3)n2C)n(Cc2ccco2)c1=O [drawing 579] | > 1000 | 13.9 ± 0.8 | 
9 | C#CCn1c(=O)c2c(nc(C#Cc3cccc(C)c3)n2C)n(CC)c1=O [drawing 566] | > 3000 | 89.7 ± 16.1 | 
10 | C#CCn1c(=O)c2c(nc(C#Cc3ccc(OC)c(OC)c3)n2C)n(CCCO)c1=O [drawing 625] |  |  | Catalepsy [3]: 0; Hypersensitivity [3]: 0; Motor Coordination [3]: −; Patterns Activity [3]: ++; Respiration [3]: +++; Stereotypies [3]: +; Temperature [3]: −; Tremor [3]: +
11 | C#CCn1c(=O)c2c(nc(C#Cc3cccc(OC)c3)n2C)n(CC)c1=O [drawing 565] | > 3000 | 64.8 ± 12 | 
12 | C#CCn1c(=O)c2c(nc(C#Cc3ccc(OC)c(OC)c3)n2C)n(C)c1=O [drawing 554] | > 3000 | 36.4 ± 0.6 | 
13 | C#CCn1c(=O)c2c(nc(C#Cc3ccc(OC)c(OC)c3)n2C)n(CC2CC2)c1=O [drawing 590] | > 1000 | 56.3 ± 26.4 | 
14 | C#CCn1c(=O)c2c(nc(C#Cc3cccc(OC)c3)n2C)n(CC(O)CO)c1=O (stereo not shown) [drawing 569] | > 3000 | 175 ± 44 | 
15 | C#CCn1c(=O)[nH]c2nc(C#Cc3ccc(OC)c(OC)c3)n(C)c2c1=O [drawing 563] | > 1000 | 18.4 ± 3 | 
16 | C#CCn1c(=O)c2c(nc(C#Cc3ccc(OC)c(OC)c3)n2C)n(CCC#N)c1=O [drawing 577] | > 1000 | 84.3 ± 31 | 
17 | C#CCn1c(=O)c2c(nc(C#Cc3ccc(OC)c(OC)c3)n2C)n(Cc2cnc[nH]2)c1=O [drawing 593] | > 1000 | 103 | 
18 | C#CCn1c(=O)c2c(nc(C#Cc3cccc(Cl)c3)n2C)n(C)c1=O [drawing 556] | > 10000 | 423 ± 28 | 
19 | C#CCn1c(=O)c2c(nc(C#Cc3cccc(OCCN(C)C)c3)n2C)n(C)c1=O [drawing 560] | > 1000 | 90.3 ± 13.7 | 
20 | C#CCn1c(=O)c2c(nc(C#Cc3ccc(OC)c(OC)c3)n2C)n(CCCOC)c1=O [drawing 581] | > 1000 | 123 ± 62 | 
21 | C#CCn1c(=O)c2c(nc(C#Cc3ccc(OC)c(OC)c3)n2C)n(CC(C)C)c1=O [drawing 585] | ≥ 1000 | 200 ± 99 | 
22 | C#CCn1c(=O)c2c(nc(C#Cc3ccc(OC)c(OC)c3)n2C)n(CCOC)c1=O [drawing 574] | > 1000 | 55.3 ± 4.3 | 
23 | C#CCn1c(=O)c2c(nc(C#Cc3ccc(OC)c(OC)c3)n2C)n(CC)c1=O [drawing 624] |  |  | Catalepsy [3]: 0; Hypersensitivity [3]: ++; Motor Coordination [3]: 0; Patterns Activity [3]: +++; Respiration [3]: +++; Stereotypies [3]: ++; Temperature [3]: +; Tremor [3]: 0
24 | C#CCn1c(=O)c2c(nc(C#Cc3ccc(OC)c(OC)c3)n2C)n(Cc2ccoc2)c1=O [drawing 583] | > 1000 | 8.4 ± 6.7 | 
25 | C#CCn1c(=O)c2c(nc(C#Cc3ccc(Cl)c(Cl)c3)n2C)n(CC)c1=O [drawing 597] | > 1000 | 738 ± 146 | 
26 | C#CCn1c(=O)c2c(nc(C#Cc3cccc(OCCO)c3)n2C)n(C)c1=O [drawing 557] | > 1000 | 226 ± 62 | 
27 | C#CCn1c(=O)c2c(nc(C#Cc3cccc(OC)c3)n2C)n(C)c1=O [drawing 553] | > 10000 | 608 ± 111 | 
28 | C#CCn1c(=O)c2c(nc(C#Cc3ccc(OC)c(OC)c3)n2C)n(CC(O)CO)c1=O (stereo not shown) [drawing 595] | > 1000 | 62.7 ± 10.7 | 
29 | C#CCn1c(=O)c2c(nc(C#Cc3ccc(OC)c(OC)c3)n2C)n(CCN(C)C)c1=O [drawing 568] | > 20000 | 51.7 ± 8.7 | 
30 | C#CCn1c(=O)c2c(nc(C#Cc3ccc(OCC)c(OCC)c3)n2C)n(CC)c1=O [drawing 573] | > 1000 | 83.4 ± 26.5 | 
